The results in this text go back to patent US7803801B2, “Aminopyridine compounds having Syk inhibitory activity” (Japan Tobacco, Inc., priority 2005, dated 2010).

Like-named read-outs stand apart in the source and are kept apart here. Some results are limits rather than exact numbers.

Test [1] has as its system cultured human mast cells. As to the kind of experiment: Degranulation inhibition test using cultured human mast cells (IgE cross-linking, β-Hexosaminidase release). The class given is cell-based. The conditions noted are these: read-out: human degranulation ave. IC50. The essentials: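 CD34+ cord-blood cells cultured ≥8 weeks with SCF/IL-6/IL-3; FcεRI primed 5 days with rhIL-4 (1 ng/mL) and hIgE (0.5 μg/mL). Compound (0.1% DMSO) preincubated 10 min at 37 °C, then anti-IgE (final 10 μg/mL) 30 min; released β-hexosaminidase read at 405 nm versus total lysate, IC50 (M).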

For test [2], the target named is GST-Syk Full Protein (human) (Homo sapiens, UniProt P43405). As to the kind of experiment: Syk kinase inhibition test (HTRF method). Type of test: biochemical. The settings on record: HTRF, 100 μM ATP, 30 min room temperature, average; read-out: sykHTRF ave IC50. In a few lines: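 Human GST-Syk full-length (6.4 nM) phosphorylated biotin-EDPDYEWPSA-NH2 (250 nM) with 100 μM ATP in HEPES pH 7.0/MgCl2 buffer, 2% DMSO, 30 min at room temperature. EDTA stop, then HTRF detection (streptavidin-XL665, Eu anti-phosphotyrosine) after 1 h; 665/620 ratio read.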

Where [3] appears, read: Mast cell, cultured human mast cells, anti-hIgE stimulation, β-Hexosaminidase index, average.

The term IC50 denotes the concentration at which inhibition is half-maximal. On to `C[C@H](O)c1ncc(-c2cccc(Nc3cc(Cl)ccn3)n2)s1` [Compound A-322, (S)-1-{5-[6-(4-chloropyridin-2-ylamino)pyridin-2-yl]thiazol-2-yl}ethanol], for which the IC50 in test [1] (setting [3]) and in test [2] was below 100 nM throughout.

On to `O=C1CC[C@@H](c2ncc(-c3cccc(Nc4cc(Cl)ccn4)n3)s2)N1` [Compound A-323, (S)-5-{5-[6-(4-chloropyridin-2-ylamino)pyridin-2-yl]thiazol-2-yl}pyrrolidin-2-one], for which the IC50 in test [1] (setting [3]) and in test [2] was below 100 nM in each case.

For `Cc1ccnc(Nc2cccc(-c3cnc([C@H]4CC[C@H](c5noc(=O)[nH]5)CC4)s3)n2)c1` [Compound A-325, 3-(trans-4-{5-[6-(4-methylpyridin-2-ylamino)pyridin-2-yl]thiazol-2-yl}cyclohexyl)-4H-[1,2,4]oxazol-5-one], the IC50 in test [1] (setting [3]) is 100 to 1000 nM; in test [2] it was below 100 nM.

Consider `Cc1ccnc(Nc2cccc(-c3cnc(C4CCC(c5nnn[nH]5)CC4)s3)n2)c1` (stereo not shown) [Compound A-326, N-(4-methylpyridin-2-yl)-N-(6-{2-[4-(1H-tetrazol-5-yl)cyclohexyl]thiazol-5-yl}pyridin-2-yl)amine], for which the IC50 was 100 to 1000 nM in test [1] (setting [3]) and below 100 nM in test [2].

As to `CC(=O)N1CCC(Cc2ncc(-c3cccc(Nc4cc(C)ccn4)n3)s2)CC1` [Compound A-328], the IC50 in test [1] (setting [3]) and in test [2] was 100 to 1000 nM each time.

Consider `O=C1CC[C@@H](c2ncc(-c3cccc(Nc4cc(CCO)ccn4)n3)s2)N1` [Compound A-330, (S)-5-(5-{6-[4-(2-hydroxyethyl)pyridin-2-ylamino]pyridin-2-yl}thiazol-2-yl)pyrrolidin-2-one], for which the concentration for half-maximal inhibition (IC50) in test [1] (setting [3]) was 100 to 1000 nM; in test [2], below 100 nM.

As for `CC(=O)N[C@@H](C)c1ncc(-c2cccc(Nc3cc(CC(=O)O)ccn3)n2)s1` [Compound A-331], the IC50 in test [1] (setting [3]) and in test [2] was above 1000 nM throughout.

Take `CCOC(=O)Cc1ccnc(Nc2cccc(-c3cnc([C@@H]4CCC(=O)N4)s3)n2)c1` [Compound A-332]: the IC50 in test [1] (setting [3]) and in test [2] was 100 to 1000 nM throughout.

On to `Cc1ccnc(Nc2cccc(-c3cnc(CC(C)(C)N)s3)n2)c1` [Compound A-333], for which the IC50 in test [1] (setting [3]) and in test [2] was 100 to 1000 nM throughout.

With `CC(=O)NC(C)(C)Cc1ncc(-c2cccc(Nc3cc(C)ccn3)n2)s1` [Compound A-334, N-(1,1-dimethyl-2-{5-[6-(4-methylpyridin-2-ylamino)pyridin-2-yl]thiazol-2-yl}ethyl)acetamide], the IC50 in test [1] (setting [3]) and in test [2] was below 100 nM each time.

Consider `C[C@H](O)c1ncc(-c2cccc(Nc3cc(C4(C)OCCO4)ccn3)n2)s1` [Compound A-335, (S)-1-(5-{6-[4-(2-methyl-[1,3]dioxolan-2-yl)pyridin-2-ylamino]pyridin-2-yl}thiazol-2-yl)ethanol], for which the values for the IC50 in test [1] (setting [3]) and in test [2] were 100 to 1000 nM and below 100 nM, respectively.

With `CNC(=O)[C@H]1CC[C@H](c2ncc(-c3cccc(Nc4cc(C)ccn4)n3)s2)CC1` [Compound A-336, N-methyl-trans-4-{5-[6-(4-methylpyridin-2-ylamino)pyridin-2-yl]thiazol-2-yl}cyclohexanecarboxamide], the half-inhibitory concentration (IC50) in test [1] (setting [3]) was 100 to 1000 nM; in test [2], below 100 nM.

Consider `Cc1ccnc(Nc2cccc(-c3cnc(CC(C)(C)NS(C)(=O)=O)s3)n2)c1` [Compound A-337, N-(1,1-dimethyl-2-{5-[6-(4-methylpyridin-2-ylamino)pyridin-2-yl]-thiazol-2-yl}ethyl)methanesulfonamide], for which the IC50 in test [1] (setting [3]) and in test [2] was below 100 nM in each case.

Take `NC(=O)[C@H]1CC[C@H](c2ncc(-c3cccc(Nc4cc(Cl)ccn4)n3)s2)CC1` [Compound A-338, trans-4-{5-[6-(4-chloropyridin-2-ylamino)pyridin-2-yl]thiazol-2-yl}cyclohexanecarboxamide]: the IC50 in test [1] (setting [3]) and in test [2] was below 100 nM each time.

On to `COc1ccnc(Nc2cccc(-c3cnc([C@H]4CC[C@H](C(N)=O)CC4)s3)n2)c1` [Compound A-339, trans-4-{5-[6-(4-methoxypyridin-2-ylamino)pyridin-2-yl]thiazol-2-yl}cyclohexanecarboxamide], for which the IC50 in test [1] (setting [3]) and in test [2] was below 100 nM in each case.

As to `O=C(O)Cc1ccnc(Nc2cccc(-c3cnc([C@@H]4CCC(=O)N4)s3)n2)c1` [Compound A-340], the IC50 in test [1] (setting [3]) and in test [2] was 100 to 1000 nM in each case.

As to `Cc1ccnc(Nc2cccc(-c3cnc(CC4CCC(O)CC4)s3)n2)c1` (stereo not shown) [Compound A-341, 4-{5-[6-(4-methylpyridin-2-ylamino)pyridin-2-yl]thiazol-2-ylmethyl}cyclohexanol], the IC50 is 100 to 1000 nM in test [1] (setting [3]) and below 100 nM in test [2].

Turning to `CNC(=O)Cc1ccnc(Nc2cccc(-c3cnc([C@@H]4CCC(=O)N4)s3)n2)c1` [Compound A-342], the IC50 in test [1] (setting [3]) and in test [2] was above 1000 nM each time.

As for `O=C1CC[C@@H](c2ncc(-c3cccc(Nc4cc(OCCO)ccn4)n3)s2)N1` [Compound A-343], the IC50 in test [1] (setting [3]) and in test [2] was 100 to 1000 nM in each case.

As for `C[C@H](O)c1ncc(-c2cccc(Nc3cc(OCCO)ccn3)n2)s1` [Compound A-344, (S)-1-(5-{6-[4-(2-hydroxyethoxy)pyridin-2-ylamino]pyridin-2-yl}thiazol-2-yl)ethanol], the IC50 in test [1] (setting [3]) and in test [2] was below 100 nM throughout.

In the case of `Cc1ccnc(Nc2cccc(-c3cnc([C@H](C)OC(=O)N(C)C)s3)n2)c1` [Compound A-345, dimethylcarbamic acid(S)-1-{5-[6-(4-methylpyridin-2-ylamino)pyridin-2-yl]thiazol-2-yl}ethyl ester], the IC50 in test [1] (setting [3]) is 100 to 1000 nM; in test [2] it was below 100 nM.

Regarding `Cc1ccnc(Nc2cccc(-c3cnc(COC(=O)N4CCOCC4)s3)n2)c1` [Compound A-346], the IC50 in test [1] (setting [3]) and in test [2] was 100 to 1000 nM throughout.

Consider `Cc1ccnc(Nc2cccc(-c3cnc([C@H](C)NC(=O)c4ccc(O)cc4)s3)n2)c1` [Compound A-347], for which the IC50 in test [1] (setting [3]) and in test [2] was 100 to 1000 nM throughout.

Turning to `Cc1ccnc(Nc2cccc(-c3cnc([C@H](C)NC(=O)c4ccccc4)s3)n2)c1` [Compound A-348], the results for the IC50 in test [1] (setting [3]) and in test [2] were above 1000 nM and 100 to 1000 nM, respectively.

`Cc1ccnc(Nc2cccc(-c3cnc([C@H](C)NC(=O)C4CCC(O)CC4)s3)n2)c1` (stereo partly shown) [Compound A-349]: the results for the IC50 in test [1] (setting [3]) and in test [2] were above 1000 nM and 100 to 1000 nM, respectively.

Consider `Cc1ccnc(Nc2cccc(-c3cnc(CN4C(=O)CCCC4=O)s3)n2)c1` [Compound A-350], for which the IC50 in test [1] (setting [3]) and in test [2] was 100 to 1000 nM in each case.

As to `Cc1ccnc(Nc2cccc(-c3cnc(CN4CCNC(=O)C4)s3)n2)c1` [Compound A-351, potassium carbonate 4-{5-[6-(4-methylpyridin-2-ylamino)pyridin-2-yl]thiazol-2-ylmethyl}piperazin-2-one], the IC50 in test [1] is 100 to 1000 nM; in test [2], below 100 nM.

On to `Cc1ccnc(Nc2cccc(-c3cnc([C@H](C)NC(=O)Cc4ccc(O)cc4)s3)n2)c1` [Compound A-352], for which the IC50 in test [1] (setting [3]) and in test [2] was 100 to 1000 nM throughout.

With `Cc1ccnc(Nc2cccc(-c3cnc(C4CCN(S(C)(=O)=O)CC4)s3)n2)c1` [Compound A-353], the IC50 in test [1] (setting [3]) and in test [2] was 100 to 1000 nM in each case.

Consider `Cc1ccnc(Nc2cccc(-c3cnc(COCC(N)=O)s3)n2)c1` [Compound A-354], for which the IC50 in test [1] (setting [3]) and in test [2] was 100 to 1000 nM in each case.

For `CC(=O)NCC(=O)N[C@@H](C)c1ncc(-c2cccc(Nc3cc(C)ccn3)n2)s1` [Compound A-355], the IC50 in test [1] (setting [3]) is above 1000 nM; in test [2], 100 to 1000 nM.

`COC(=O)N(C)Cc1ncc(-c2cccc(Nc3cc(C)ccn3)n2)s1` [Compound A-356]: the IC50 in test [1] (setting [3]) and in test [2] was 100 to 1000 nM in each case.

For `Cc1ccnc(Nc2cccc(-c3cnc(CN(C)C(=O)N(C)C)s3)n2)c1` [Compound A-357], the IC50 in test [1] (setting [3]) was above 1000 nM; in test [2], 100 to 1000 nM.

As to `Cc1ccnc(Nc2cccc(-c3cnc(CN(C)C(=O)C4CC4)s3)n2)c1` [Compound A-358], the IC50 in test [1] (setting [3]) and in test [2] was 100 to 1000 nM throughout.

`CNC(=O)N1CCC(c2ncc(-c3cccc(Nc4cc(C)ccn4)n3)s2)CC1` [Compound A-359]: the IC50 in test [1] (setting [3]) and in test [2] was 100 to 1000 nM each time.

Take `CC(=O)Oc1ccc(CC(OC(C)=O)c2ncc(-c3cccc(Nc4cc(C)ccn4)n3)s2)cc1` (stereo not shown) [Compound A-360]: the IC50 in test [1] (setting [3]) and in test [2] was above 1000 nM throughout.

Take `COC(=O)COCc1ncc(-c2cccc(Nc3cc(C)ccn3)n2)s1` [Compound A-361]: the IC50 in test [1] (setting [3]) and in test [2] was 100 to 1000 nM throughout.

With `Cc1ccnc(Nc2cccc(-c3cnc(C(O)Cc4ccc(O)cc4)s3)n2)c1` (stereo not shown) [Compound A-362, 4-(2-hydroxy-2-{5-[6-(4-methylpyridin-2-ylamino)pyridin-2-yl]thiazol-2-yl}ethyl)phenol], the values for the IC50 in test [1] (setting [3]) and in test [2] were 100 to 1000 nM and below 100 nM, respectively.

In the case of `Cc1ccnc(Nc2cccc(-c3cnc([C@@H]4CCCC(=O)N4)s3)n2)c1` [Compound A-363], the IC50 in test [1] (setting [3]) and in test [2] was 100 to 1000 nM each time.

For the compound `Cc1ccnc(Nc2cccc(-c3cnc([C@@H]4CCCC(=O)N4C)s3)n2)c1` [Compound A-364], the IC50 in test [1] (setting [3]) and in test [2] was 100 to 1000 nM in each case.

As to `Cc1ccnc(Nc2cccc(-c3cnc([C@@H]4COC(C)(C)O4)s3)n2)c1` [Compound A-365], the IC50 in test [1] (setting [3]) and in test [2] was 100 to 1000 nM throughout.
